Experimental data from patent US4473578A, “β-Lactam antibiotics and their use” (Beecham Group Limited, priority 1979, dated 1984).

Tests used:
Experiment in all cases: Antibacterial effectiveness in agar
Type in all cases: cell-based
Escherichia coli JT425C+ = conditions: in agar; Escherichia coli JT425C+; read-out: M.I.C.
Description: (§1) b. Antibacterial effectiveness of the compound of […]

[1] = system: Klebsiella aerogenes R112; conditions: in agar; Klebsiella aerogenes R112; read-out: M.I.C.
Description: as §1

[2] = system: Klebsiella aerogenes Va2R+; conditions: in agar; Klebsiella aerogenes Va2R+; read-out: M.I.C.
Description: as §1

Escherichia coli JT20R+ = system: Escherichia coli JT20R+
Description: as §1

[3] = system: Escherichia coli NCTC 15418; conditions: NCTC15418; in agar; Escherichia coli NCTC 15418; read-out: M.I.C.
Description: as §1

[4] = system: Staphylococcus aureus Smith; conditions: in agar; Staphylococcus aureus Smith; read-out: M.I.C.
Description: as §1

[5] = system: Klebsiella aerogenes I281; conditions: in agar; Klebsiella aerogenes I281; read-out: M.I.C.
Description: as §1

Bacteroides fragilis WS1 = conditions: in agar; Bacteroides fragilis WS1; read-out: M.I.C.
Description: as §1

[6] = system: Pseudomonas aeruginosa W975; conditions: in agar; Pseudomonas aeruginosa W975; read-out: M.I.C.
Description: as §1

[7] = system: Enterobacter cloacea T749; conditions: in agar; Enterobacter cloacea T749; read-out: M.I.C.
Description: as §1

[8] = system: Proteus vulgaris NCTC 4395; conditions: NCTC4395; in agar; Proteus vulgaris NCTC 4395; read-out: M.I.C.
Description: as §1

Proteus vulgaris X = conditions: in agar; Proteus vulgaris X; read-out: M.I.C.
Description: as §1

Escherichia coli JT4R+ = system: Escherichia coli JT4R+
Description: as §1

Bacteroides fragilis BC4 = conditions: in agar; Bacteroides fragilis BC4; read-out: M.I.C.
Description: as §1

[9] = system: Citrobacter freundii T221; conditions: in agar; Citrobacter freundii T221; read-out: M.I.C.
Description: as §1

Escherichia coli Ba78R+ = conditions: in agar; Escherichia coli Ba78R+; read-out: M.I.C.
Description: as §1

[10] = system: Bacteroides fragilis WS12; conditions: in agar; Bacteroides fragilis WS12; read-out: M.I.C.
Description: as §1

[11] = system: Klebsiella aerogenes T219; conditions: in agar; Klebsiella aerogenes T219; read-out: M.I.C.
Description: as §1

Citrobacter freundii W18 = conditions: in agar; Citrobacter freundii W18; read-out: M.I.C.
Description: as §1

Escherichia coli 5 = conditions: in agar; Escherichia coli 5; read-out: M.I.C.
Description: as §1

[12] = system: Staphylococcus aureus ME9+; conditions: in agar; Staphylococcus aureus ME9+; read-out: M.I.C.
Description: as §1

[13] = system: Streptococcus faecalis C90; conditions: Enterococcus faecalis; in agar; Streptococcus faecalis C90; read-out: M.I.C.
Description: as §1

Escherichia coli E96R+ = system: Escherichia coli E96R+
Description: as §1

Proteus mirabilis 889 = conditions: in agar; Proteus mirabilis 889; read-out: M.I.C.
Description: as §1

[14] = system: Streptococcus faecalis T1101; conditions: Enterococcus faecalis; in agar; Streptococcus faecalis T1101; read-out: M.I.C.
Description: as §1

Escherichia coli JT1 = conditions: in agar; Escherichia coli JT1; read-out: M.I.C.
Description: as §1

[15] = system: Bacteroides fragilis 2118; conditions: in agar; Bacteroides fragilis 2118; read-out: M.I.C.
Description: as §1

[16] = system: Pseudomonas aeruginosa Dalgleish; conditions: in agar; Pseudomonas aeruginosa Dalgleish; read-out: M.I.C.
Description: as §1

Proteus rettgeri R110 = conditions: Providencia rettgeri; in agar; Proteus rettgeri R110; read-out: M.I.C.
Description: as §1

Bacteroides fragilis B3 = conditions: in agar; Bacteroides fragilis B3; read-out: M.I.C.
Description: as §1

[17] = system: Bacteroides fragilis VP1 8249; conditions: VP18249; in agar; Bacteroides fragilis VP1 8249; read-out: M.I.C.
Description: as §1

Serratia marcescens SM27 = conditions: in agar; Serratia marcescens SM27; read-out: M.I.C.
Description: as §1

[18] = system: Bacteroides fragilis WS41; conditions: in agar; Bacteroides fragilis WS41; read-out: M.I.C.
Description: as §1

[19] = system: Enterbacter aerogenes T660; conditions: in agar; Enterbacter aerogenes T660; read-out: M.I.C.
Description: as §1

Proteus rettgeri I = conditions: Providencia rettgeri; in agar; Proteus rettgeri I; read-out: M.I.C.
Description: as §1

Proteus mirabilis T318 = conditions: in agar; Proteus mirabilis T318; read-out: M.I.C.
Description: as §1

[20] = system: Bacteroides fragilis BC16; conditions: in agar; Bacteroides fragilis BC16; read-out: M.I.C.
Description: as §1

Measured: MIC

CC(=O)N/C=C/SC1=C(C(=O)O)N2C(=O)[C@@H]([C@H](C)OS(=O)(=O)O)[C@H]2C1 [MM 13902, reference compound]
50 µg/mL: [6] | [16]
≤ 0.1 µg/mL: [3] | [11] | Escherichia coli 5 | Escherichia coli JT1 | Proteus mirabilis T318
1.6 µg/mL: Escherichia coli JT20R+ | [4] | Escherichia coli JT4R+ | Bacteroides fragilis BC4 | Serratia marcescens SM27 | [20]
0.1 µg/mL: [8]
12.5 µg/mL: [7]
3.1 µg/mL: [12]
0.4 µg/mL: Proteus vulgaris X | Bacteroides fragilis B3 | [18] | [19]
6.2 µg/mL: [2] | Bacteroides fragilis WS1 | [9] | Citrobacter freundii W18 | [13] | [14]
0.8 µg/mL: Escherichia coli JT425C+ | Escherichia coli Ba78R+
0.2 µg/mL: all other assays above
